For data set [1] the following is noted: 1.0% DMSO, 24-hour incubation at ambient temperature, maximum theoretical 100 μM; for pH 2 solubility: 0.1N HCl, first value of the cell; for pH 7 solubility: 1×PBS buffer (pH 7.4), second value of the cell.
Data set [2] in a line: Solubility in simulated intestinal fluids (FaSSIF/FeSSIF). The settings on record: 25 °C, thermodynamic from solid.
Setting [3] is: fasted state simulated intestinal fluid (FaSSIF), fassif.
The mark [4] stands for this setting: fed state simulated intestinal fluid (FeSSIF), fessif.

In brackets after ≈: the same amount, converted by molar mass.

Results on seven compounds are retold here after patent US12404262B2 (priority 2021, dated 2025).

Turning to `CC(C)(C#Cc1ccc(-c2ccc(Cl)c3c(N(C(=O)NC(CP(=O)(O)O)C(=O)O)S(C)(=O)=O)nn(CC(F)(F)F)c23)c([C@H](Cc2cc(F)cc(F)c2)NC(=O)Cn2nc(C(F)(F)F)c3c2C(F)(F)[C@@H]2C[C@H]32)n1)S(C)(=O)=O` (stereo partly drawn) [Compound 56, 2-(3-(4-chloro-7-(2-((S)-1-(2-((3bS,4aR)-5,5-difluoro-3-(trifluoromethyl)-3b,4,4a,5-tetrahydro-1H-cyclopropa[3,4]cyclopenta[1,2-c]pyrazol-1-yl)acetamido)-2-(3,5-difluorophenyl)ethyl)-6-(3-methyl-3-(methylsulfonyl)but-1-yn-1-yl)pyridin-3-yl)-1-(2,2,2-trifluoroethyl)-1H-indazol-3-yl)-3-(methylsulfonyl)ureido)-3-phosphonopropanoic acid], in data set [1], the “pH 2 solubility” value is 3 μM. The “pH 7 solubility” value in data set [1] is 42 μM. Besides, the figures for the solubility in data set [2] (setting [3]) and in data set [2] (setting [4]) were 1080 µg/mL (≈ 930 µM) and 1590 µg/mL (≈ 1370 µM), respectively.

As for `CC(C)(C#Cc1ccc(-c2ccc(Cl)c3c(N(C(=O)OCCNC(=O)C(=O)O)S(C)(=O)=O)nn(CC(F)(F)F)c23)c([C@H](Cc2cc(F)cc(F)c2)NC(=O)Cn2nc(C(F)(F)F)c3c2C(F)(F)[C@@H]2C[C@H]32)n1)S(C)(=O)=O` [Compound 122, 2-((2-(((4-chloro-7-(2-((S)-1-(2-((3bS,4aR)-5,5-difluoro-3-(trifluoromethyl)-3b,4,4a,5-tetrahydro-1H-cyclopropa[3,4]cyclopenta[1,2-c]pyrazol-1-yl)acetamido)-2-(3,5-difluorophenyl)ethyl)-6-(3-methyl-3-(methylsulfonyl)but-1-yn-1-yl)pyridin-3-yl)-1-(2,2,2-trifluoroethyl)-1H-indazol-3-yl)(methylsulfonyl)carbamoyl)oxy)ethyl)amino)-2-oxoacetic acid], the “pH 2 solubility” value in data set [1] was 1 μM. Also, in data set [1], the “pH 7 solubility” value was determined as 16 μM. Besides, the solubility is 7 µg/mL (≈ 6.21 µM) in data set [2] (setting [3]) and 162 µg/mL (≈ 144 µM) in data set [2] (setting [4]).

With `CN(CC(=O)O)C(=O)N(c1nn(CC(F)(F)F)c2c(-c3ccc(C#CC(C)(C)S(C)(=O)=O)nc3[C@H](Cc3cc(F)cc(F)c3)NC(=O)Cn3nc(C(F)(F)F)c4c3C(F)(F)[C@@H]3C[C@H]43)ccc(Cl)c12)S(C)(=O)=O` [Compound 44, N-((4-chloro-7-(2-((S)-1-(2-((3bS,4aR)-5,5-difluoro-3-(trifluoromethyl)-3b,4,4a,5-tetrahydro-1H-cyclopropa[3,4]cyclopenta[1,2-c]pyrazol-1-yl)acetamido)-2-(3,5-difluorophenyl)ethyl)-6-(3-methyl-3-(methylsulfonyl)but-1-yn-1-yl)pyridin-3-yl)-1-(2,2,2-trifluoroethyl)-1H-indazol-3-yl)(methylsulfonyl)carbamoyl)-N-methylglycine], in data set [1], the “pH 2 solubility” value came to 1 μM and the “pH 7 solubility” value came out at 9 μM. For the same compound, in data set [2] (setting [3]), the solubility was 10 µg/mL (≈ 9.23 µM). Moreover, the concentration in solution in data set [2] (setting [4]) (solubility) came to 10 µg/mL (≈ 9.23 µM).

On to `CC(C)(C#Cc1ccc(-c2ccc(Cl)c3c(N(C(=O)N[C@@H](CC(=O)O)C(=O)O)S(C)(=O)=O)nn(CC(F)(F)F)c23)c([C@H](Cc2cc(F)cc(F)c2)NC(=O)Cn2nc(C(F)(F)F)c3c2C(F)(F)[C@@H]2C[C@H]32)n1)S(C)(=O)=O` [Compound 69, ((4-chloro-7-(2-((S)-1-(2-((3bS,4aR)-5,5-difluoro-3-(trifluoromethyl)-3b,4,4a,5-tetrahydro-1H-cyclopropa[3,4]cyclopenta[1,2-c]pyrazol-1-yl)acetamido)-2-(3,5-difluorophenyl)ethyl)-6-(3-methyl-3-(methylsulfonyl)but-1-yn-1-yl)pyridin-3-yl)-1-(2,2,2-trifluoroethyl)-1H-indazol-3-yl)(methylsulfonyl)carbamoyl)-L-aspartic acid], for which, in data set [1], the “pH 2 solubility” value was 1 μM and the “pH 7 solubility” value is on record as 81 μM. The solubility in data set [2] (setting [3]) was 1580 µg/mL (≈ 1400 µM). The compound further displayed a solubility in data set [2] (setting [4]) of 247 µg/mL (≈ 219 µM).

With `CC(C)(C#Cc1ccc(-c2ccc(Cl)c3c(N(C(=O)N[C@@H](COC(=O)C(=O)O)C(=O)O)S(C)(=O)=O)nn(CC(F)(F)F)c23)c([C@H](Cc2cc(F)cc(F)c2)NC(=O)Cn2nc(C(F)(F)F)c3c2C(F)(F)[C@@H]2C[C@H]32)n1)S(C)(=O)=O` [Compound 60, O-(carboxycarbonyl)-N-((4-chloro-7-(2-((S)-1-(2-((3bS,4aR)-5,5-difluoro-3-(trifluoromethyl)-3b,4,4a,5-tetrahydro-1H-cyclopropa[3,4]cyclopenta[1,2-c]pyrazol-1-yl)acetamido)-2-(3,5-difluorophenyl)ethyl)-6-(3-methyl-3-(methylsulfonyl)but-1-yn-1-yl)pyridin-3-yl)-1-(2,2,2-trifluoroethyl)-1H-indazol-3-yl)(methylsulfonyl)carbamoyl)-L-serine], the “pH 2 solubility” value in data set [1] was found to be 1 μM. The “pH 7 solubility” value in data set [1] is on record as 14 μM. For the same compound, the solubility in data set [2] (setting [3]) was 364 µg/mL (≈ 311 µM); in data set [2] (setting [4]), 756 µg/mL (≈ 645 µM).

In the case of `CC(C)(C#Cc1ccc(-c2ccc(Cl)c3c(N(C(=O)OCCC(C(=O)O)C(=O)O)S(C)(=O)=O)nn(CC(F)(F)F)c23)c([C@H](Cc2cc(F)cc(F)c2)NC(=O)Cn2nc(C(F)(F)F)c3c2C(F)(F)[C@@H]2C[C@H]32)n1)S(C)(=O)=O` [Compound 126, 2-(2-(((4-chloro-7-(2-((S)-1-(2-((3bS,4aR)-5,5-difluoro-3-(trifluoromethyl)-3b,4,4a,5-tetrahydro-1H-cyclopropa[3,4]cyclopenta[1,2-c]pyrazol-1-yl)acetamido)-2-(3,5-difluorophenyl)ethyl)-6-(3-methyl-3-(methylsulfonyl)but-1-yn-1-yl)pyridin-3-yl)-1-(2,2,2-trifluoroethyl)-1H-indazol-3-yl)(methylsulfonyl)carbamoyl)oxy)ethyl)malonic acid], in data set [1], the “pH 2 solubility” value was determined as 1 μM and the “pH 7 solubility” value is reported as 5 μM. Besides, the concentration in solution in data set [2] (setting [3]) (solubility) came to 21 µg/mL (≈ 18.4 µM). In data set [2] (setting [4]), this compound returned a solubility of 218 µg/mL (≈ 191 µM).

Consider `CN(CCN(CCC(=O)O)C(=O)OCOP(=O)(O)O)C(=O)N(c1nn(CC(F)(F)F)c2c(-c3ccc(C#CC(C)(C)S(C)(=O)=O)nc3[C@H](Cc3cc(F)cc(F)c3)NC(=O)Cn3nc(C(F)(F)F)c4c3C(F)(F)[C@@H]3C[C@H]43)ccc(Cl)c12)S(C)(=O)=O` [Compound 86, 3-((2-(3-(4-chloro-7-(2-((S)-1-(2-((3bS,4aR)-5,5-difluoro-3-(trifluoromethyl)-3b,4,4a,5-tetrahydro-1H-cyclopropa[3,4]cyclopenta[1,2-c]pyrazol-1-yl)acetamido)-2-(3,5-difluorophenyl)ethyl)-6-(3-methyl-3-(methylsulfonyl)but-1-yn-1-yl)pyridin-3-yl)-1-(2,2,2-trifluoroethyl)-1H-indazol-3-yl)-1-methyl-3-(methylsulfonyl)ureido)ethyl)(((phosphonooxy)methoxy)carbonyl)amino)propanoic acid], for which, in data set [1], the “pH 2 solubility” value turned out to be 1 μM and the “pH 7 solubility” value stood at 100 μM. In data set [2] (setting [3]), this compound registered a solubility of 2020 µg/mL (≈ 1560 µM). In addition, the solubility in data set [2] (setting [4]) is 1470 µg/mL (≈ 1130 µM).

As usually defined, the solubility is the dissolved amount per volume that the medium holds. The low end stands for little dissolved substance, the high end for much dissolved substance.
